Reference: patent US8501440B2 (Case Western Reserve University, priority 2006, dated 2013)
Entries after “also recorded” stand apart in the source; their conditions may differ.

Assays:
[1] = system: human breast cancer cell line MCF-7; experiment: Mitogenicity in cell culture (cell growth, DNA content); type: cell-based; conditions: MCF-7, 3-days exposure, cell number and DNA content
Description: Growth media were supplemented with 10% fetal bovine serum (FBS) (Invitrogen Life Technologies, Inc., Carlsbad, AA), penicillin (100 U/ml) and streptomycin (100 ug/mL). Approximately 1.0×10^5 cells were seeded into 35-mm dishes and cultured until subconfluent. Two assays were employed: (i) Cell-growth curves were determined by hemocytometry. Approximately 5×10^4 were seeded into a 24-well plate and cultured for 24 h. After 24 hour, the medium was removed and replaced with fresh medium containing 0.1% BSA. […] Cell numbers were determined after 3-days exposure to the hormones. (ii) Cell DNA content was determined using a DNA measurement kit (Invitrogen) following 3-days exposure to the hormones in cell culture as above.

diabetic Lewis rats = experiment: Blood glucose lowering in streptozotocin-diabetic rats; type: in vivo, rat; conditions: streptozotocin-diabetic male Lewis rats, 1.5 U/kg subcutaneously, 0-90 min
Description: Male Lewis rats (˜250 g body weight) were rendered diabetic with streptozotocin. […] Rats were injected subcutaneously at time=0 with 1.5 U/kg body weight in 100 μl of diluent. Blood was obtained from clipped tip of the tail at time 0 and every 10 minutes up to 90 min. Blood glucose was measured using a Hypoguard Advance Micro-Draw meter.

[2] = Thermodynamic stability by guanidine denaturation; type: physicochemical; conditions: 37° C. and pH 7.4
Description: Circular Dichroism—Samples were dissolved in either 10 mM phosphate and 100 mM KCl (pH 7.4) or 0.01 N HCl (pH 2.0) at a protein concentration of 25 μM. To remove particulate matter and protein aggregates, samples were filtered ([…]; Satorius, Goetlingen, Germany). Spectra, acquired with an Aviv spectropolarimeter (Aviv Biomedical, Inc., Lakewood, N.J.), were normalized. […]

[3] = Fibrillation assay (thioflavin T fluorescence); type: physicochemical; conditions: zinc free, 60 μM, pH 7.4, 37° C., tilting table
Description: Samples (in triplicate) were placed in sealed glass vials and placed on an automated tilting table at 37° C. At successive times aliquots were withdrawn and analyzed by a thioflavin T (ThT) fluorescence spectroscopy assay to determine the onset of fibrillation as follows.
Thioflavin T (ThT) was made 1 mM in double-distilled water and stored at 4° C. in the dark. To monitor fibrillation, 10-μl aliquots of samples were obtained at indicated time points and were mixed with 3 ml of ThT assay buffer (5 μM ThT in 50 mM Tris-HCl (pH 7.5) and 100 mM NaCl). Fluorescence measurements were performed using an Aviv spectrofluorometer in 1-cm quartz cuvettes. Emission spectra were collected from 470 to 500 nm following excitation at 450 nm; the integration time was 1 s. ThT in buffer without protein was used as baseline. The fibrillation lag time is defined as the time required to observe twofold enhancement in ThT emission. The threshold of twofold-enhanced ThT fluorescence is followed a rapid increase in turbidity associated with elongation of mature fibrils and a further increase in ThT fluorescence.

[4] = molecular target: T1, Insulin-like Growth Factor receptor (IGFR) (Homo sapiens, UniProt P08069); experiment: IGFR binding assay (microtiter plate antibody assay); conditions: relative to IGF-1
T1 construct: expressed in transfected cells; host or cells: PEAK rapid cells, transient transfection, Triton X-100 lysate
T1 sequence (P08069 31-736 limits assumed): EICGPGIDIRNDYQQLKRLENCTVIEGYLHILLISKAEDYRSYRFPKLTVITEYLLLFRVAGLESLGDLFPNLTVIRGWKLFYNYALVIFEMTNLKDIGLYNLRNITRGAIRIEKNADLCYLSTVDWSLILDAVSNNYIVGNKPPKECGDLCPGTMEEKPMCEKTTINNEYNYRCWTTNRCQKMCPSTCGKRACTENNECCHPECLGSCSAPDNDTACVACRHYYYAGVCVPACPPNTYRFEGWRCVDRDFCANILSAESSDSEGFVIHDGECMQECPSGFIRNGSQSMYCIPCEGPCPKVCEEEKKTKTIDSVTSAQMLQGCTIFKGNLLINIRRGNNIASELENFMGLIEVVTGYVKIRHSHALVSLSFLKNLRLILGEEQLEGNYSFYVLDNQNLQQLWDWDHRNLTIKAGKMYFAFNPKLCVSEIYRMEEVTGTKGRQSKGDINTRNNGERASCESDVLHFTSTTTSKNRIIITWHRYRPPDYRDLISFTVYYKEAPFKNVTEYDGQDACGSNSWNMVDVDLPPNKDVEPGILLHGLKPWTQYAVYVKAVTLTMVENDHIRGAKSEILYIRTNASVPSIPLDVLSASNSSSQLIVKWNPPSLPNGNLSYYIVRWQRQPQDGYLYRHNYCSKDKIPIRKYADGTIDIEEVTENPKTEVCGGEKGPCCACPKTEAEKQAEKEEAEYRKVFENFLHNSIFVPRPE
T1 sequence (P08069 741-1367 partner limits assumed): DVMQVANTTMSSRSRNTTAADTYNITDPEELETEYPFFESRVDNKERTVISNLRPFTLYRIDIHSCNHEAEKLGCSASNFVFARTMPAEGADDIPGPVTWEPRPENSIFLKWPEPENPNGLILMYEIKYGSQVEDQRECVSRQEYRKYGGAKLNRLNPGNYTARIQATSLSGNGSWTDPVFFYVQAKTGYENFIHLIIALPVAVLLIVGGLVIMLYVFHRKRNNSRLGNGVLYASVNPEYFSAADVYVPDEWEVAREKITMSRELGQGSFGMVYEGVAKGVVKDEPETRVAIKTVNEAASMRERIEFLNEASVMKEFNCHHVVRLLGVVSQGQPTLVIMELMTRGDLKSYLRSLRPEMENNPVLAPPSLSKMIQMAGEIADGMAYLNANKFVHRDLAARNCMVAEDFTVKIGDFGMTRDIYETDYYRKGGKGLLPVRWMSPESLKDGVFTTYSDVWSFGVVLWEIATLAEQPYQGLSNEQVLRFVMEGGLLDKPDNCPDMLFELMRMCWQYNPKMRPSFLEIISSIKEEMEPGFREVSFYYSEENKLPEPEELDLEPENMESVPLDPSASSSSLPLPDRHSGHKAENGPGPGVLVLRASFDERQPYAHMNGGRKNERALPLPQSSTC
Description: Receptor-Binding Assays. […] Subsequent to incubation, mixtures are diluted with 1 ml of ice-cold buffer and centrifuged (10,000 g) for 5 min at 4° C. The supernatant will then be removed by aspiration, and the membrane pellet counted for radioactivity. […] Binding data were analyzed by a two-site sequential model. A corresponding microtiter plate antibody assay using the IGF Type I receptor was employed to assess cross-binding to this homologous receptor.
DNA for transfection was prepared according to the method of Mynarcik et al. (J. Biol. Chem., 1997, 272, pp 18650-18655). The receptor cDNAs were expressed transiently in PEAK rapid cells using polyethyleneimine. Cells were harvested by lysis in 0.15M NaCl and 0.1M Tris (pH 8) containing 1% (v/v) Triton X-100 and protease inhibitor cocktail three days post-transfection. Lysates were stored at −80° C. until assay. Receptor-binding assays were performed as described by Mynarcik. Microtiter strip plates (Nunc Maxisorb) were incubated overnight at 4° C. with anti-FLAG IgG ([…] of a […] solution in PBS). […] Binding data were analyzed by a two-site sequential model with homologous or heterologous labeled and unlabeled ligands to obtain dissociation constants as described by Whittaker et al. (J. Biol. Chem., 2001, 276, pp 43980-43986).

| Substance | mitogenicity ([1]; listed as 57 mer single-chain insulin analogue) | rate of decrease of blood glucose concentration (diabetic Lewis rats) | ΔGu [2] | mitogenicity [1] | Lag time (days ± 10%) [3] | IGFR Relative Affinity [4] |
| --- | --- | --- | --- | --- | --- | --- |
| 57mer single-chain analogue: 57-mer single-chain insulin, SEQ ID NO: 26; His^A8, Asp^B10, Asp^B28, Pro^B29 substitutions; six-residue linker GGGPRR between B30 and A1 | indistinguishable from human insulin; also recorded: significantly less mitogenic than IGF-I | 62.0±16.3 mg/dL per h | – | – | – | – |
| Corresponding two-chain analogue: two-chain insulin analogue with His^A8, Asp^B10, Asp^B28, Pro^B29 substitutions; SEQ ID NOS: 28 and 29 | – | 53.2±11.7 mg/dL per h | 3.6 kcal/mol | intermediate between the single-chain insulin analogue | 70 ± 5 days | – |
| IGF-I | – | – | – | – | – | 1 |
